From publication PMC9790248, “Effects of CYP3A Inhibition, CYP3A Induction, and Gastric Acid Reduction on the Pharmacokinetics of Ripretinib, a Switch Control KIT Tyrosine Kinase Inhibitor” (Clinical Pharmacology in Drug Development, 2022)
Values joined by “and” are separate entries in the source; they are usually repeats but may differ in a detail not shown here. Equal entries are not always repeated. Where two headings read alike, the source gives them in different places.

Assay: Itraconazole (strong CYP3A inhibitor) DDI study, plasma pharmacokinetics
Format: in vivo, human
Details: for AUC(0-t) / AUC(0-inf) / Cmax / half-life / Tmax: both sexes, human, plasma; for AUC(0-t) / AUC(0-inf) / Cmax / half-life: po; for AUC(0-t) / AUC(0-inf) / Cmax / half-life / Tmax / CL/F, arithmetic mean (SD) / CL/F, geometric mean (CV%): fasting; for Tmax: read-out: tmax, median (min, max); for Time postdose that mean plasma concentration remained above the LLOQ: LLOQ 2.00 ng/mL
Procedure: All studies were phase 1, fixed‐sequence, open‐label studies in healthy volunteers. One study consisted of two separate cohorts examining DDIs between ripretinib and itraconazole or pantoprazole, respectively; the rifampin study was conducted separately. Studies and cohorts were enrolled independently. Eligible participants were healthy male or female adults between 18 and 55 years of age with a body mass index (BMI) of ≥18.5 and ≤30 kg/m^2. Good health was confirmed by a physician and based on medical evaluation with no significant findings, including medical history, physical examination, laboratory tests, and 12‐lead electrocardiogram (ECG) at screening and day −1. Participants were required to abstain from alcohol, marijuana, grapefruit, Seville oranges, tangelo, star fruit, and grapefruit‐like products 14 days prior to and during the study. Participants with a positive breath test for Helicobacter pylori were excluded from the pantoprazole study.
Ripretinib and its active metabolite DP‐5439 plasma concentrations were measured using a validated high‐performance liquid chromatography (HPLC) with tandem mass spectrometry (LC‐MS/MS) assay with a lower limit of quantification (LLOQ) of 2.00 ng/mL for both analytes. In this method, the analytes (ripretinib and DP‐5439) and the internal standards (ISs; DCC‐2618‐d5 and DP‐5439‐d5) were released from human plasma samples by protein precipitation. The supernatants were chromatographed using reversed‐phase HPLC with a Betasil® C8 analytical column with deionized water (0.1% formic acid) and 40/60 acetonitrile/acetone (0.1% formic acid) as the mobile phase. Mass spectrometric detection was performed on a triple quadrupole tandem mass spectrometer API 5000 or API 5500 (Applied Biosystems/MDS Sciex, Toronto, Canada) equipped with a turbo ion spray source operated in the positive ionization mode. The source parameters were collision energy 40 eV, collision gas 6 psi, Nebulizer Gas 1, Turbo IonSpray Gas 2, and curtain gas 35 psi. Quantification was obtained by using multiple reaction monitoring mode of the transitions of mass to charge ratio [m/z] 510.3 →417 for DCC‐2618 (ripretinib), m/z 496.2 →403 for DP‐5439, m/z 515.3 →417 for DCC‐2618‐d5, and m/z 501.2 →403 for DP‐5439‐d5.
Plasma concentration–time data were analyzed using noncompartmental methods using Phoenix® WinNonlin® v7.0 (Certara USA Inc., Princeton, New Jersey). Derived PK parameters included area under the concentration–time curve from time 0 to time t (AUC0–t) and area under the concentration–time curve from 0 to infinity (AUC0–∞), maximum observed concentration (Cmax), time of maximum observed concentration (tmax), elimination half‐life (t1/2), apparent systemic clearance, and for DP‐5439, metabolite to parent ratio for AUC0–t, AUC0–∞, and Cmax.
The PK population included all participants who received ≥1 dose ripretinib and had ≥1 nonmissing PK concentration in plasma reported for ripretinib or DP‐5439. The PK evaluable set included all participants in the PK population who had ripretinib PK parameters on both ripretinib dosing days, bioanalytical results for ≥75% of planned analyses, no missed ripretinib doses and ≤2 missed perpetrator (itraconazole, pantoprazole, or rifampin) doses before the second dosing day of ripretinib, and no emesis within 8 hours of ripretinib administration. […]

[1] = ripretinib 50 mg single oral dose + itraconazole 200 mg QD, healthy participants (N = 20)
[2] = ripretinib 50 mg single oral dose alone, healthy participants (itraconazole study, N = 20)
[3] = ripretinib 50 mg with itraconazole 200 mg QD relative to ripretinib alone

For `CCn1c(=O)c(-c2cc(NC(=O)Nc3ccccc3)c(F)cc2Br)cc2cnc(NC)cc21` [Ripretinib], which AUC(0-t) (50 mg, ripretinib 50 mg single oral dose alone, healthy participants (itraconazole study, N = 20), read-out: AUC0–t, arithmetic mean (SD)) is on record?
The AUC(0-t) was 4400 ng·h/mL.

And the AUC(0-t) (50 mg, ripretinib 50 mg single oral dose alone, healthy participants (itraconazole study, N = 20), read-out: AUC0–t, geometric mean (CV%))?
The AUC(0-t) was 4060 ng·h/mL.

And the AUC(0-inf) (50 mg, ripretinib 50 mg single oral dose alone, healthy participants (itraconazole study, N = 20), read-out: AUC0–∞, arithmetic mean (SD))?
Its AUC(0-inf) is 4500 ng·h/mL.

What about the AUC(0-inf) (50 mg, ripretinib 50 mg single oral dose alone, healthy participants (itraconazole study, N = 20), read-out: AUC0–∞, geometric mean (CV%)) of the same compound?
The AUC(0-inf) was 4180 ng·h/mL.

What about the Cmax (50 mg, ripretinib 50 mg single oral dose alone, healthy participants (itraconazole study, N = 20), read-out: Cmax, arithmetic mean (SD)) of the same compound?
The Cmax was 321 ng/mL.

What about the Cmax (50 mg, ripretinib 50 mg single oral dose alone, healthy participants (itraconazole study, N = 20), read-out: Cmax, geometric mean (CV%)) of the same compound?
The Cmax was 291 ng/mL.

What about the half-life (50 mg, ripretinib 50 mg single oral dose alone, healthy participants (itraconazole study, N = 20), read-out: t1/2, arithmetic mean (SD) (converted)) of the same compound?
The half-life was 17 h.

And the half-life (50 mg, ripretinib 50 mg single oral dose alone, healthy participants (itraconazole study, N = 20), read-out: t1/2, geometric mean (CV%) (converted))?
Its half-life is 16 h.

And the AUC(0-t) (ripretinib 50 mg single oral dose + itraconazole 200 mg QD, healthy participants (N = 20), read-out: AUC0–t, arithmetic mean (SD))?
The AUC(0-t) was 8900 ng·h/mL.

What about the AUC(0-t) (ripretinib 50 mg single oral dose + itraconazole 200 mg QD, healthy participants (N = 20), read-out: AUC0–t, geometric mean (CV%)) of the same compound?
Its AUC(0-t) is 8060 ng·h/mL.

What about the AUC(0-inf) (ripretinib 50 mg single oral dose + itraconazole 200 mg QD, healthy participants (N = 20), read-out: AUC0–∞, arithmetic mean (SD)) of the same compound?
Its AUC(0-inf) is 9190 ng·h/mL.

What about the AUC(0-inf) (ripretinib 50 mg single oral dose + itraconazole 200 mg QD, healthy participants (N = 20), read-out: AUC0–∞, geometric mean (CV%)) of the same compound?
Its AUC(0-inf) is 8310 ng·h/mL.

What about the Cmax (ripretinib 50 mg single oral dose + itraconazole 200 mg QD, healthy participants (N = 20), read-out: Cmax, arithmetic mean (SD)) of the same compound?
The Cmax was 404 ng/mL.

And the Cmax (ripretinib 50 mg single oral dose + itraconazole 200 mg QD, healthy participants (N = 20), read-out: Cmax, geometric mean (CV%))?
Its Cmax is 395 ng/mL.

What about the half-life (ripretinib 50 mg single oral dose + itraconazole 200 mg QD, healthy participants (N = 20), read-out: t1/2, arithmetic mean (SD) (converted)) of the same compound?
Its half-life is 27 h.

And the half-life (ripretinib 50 mg single oral dose + itraconazole 200 mg QD, healthy participants (N = 20), read-out: t1/2, geometric mean (CV%) (converted))?
The half-life was 24 h.

What about the Tmax [1] of the same compound?
The Tmax was 4 h.

What about the Tmax [2] of the same compound?
The Tmax was 3 h.

And the “Increase in exposure with daily itraconazole coadministration” value (ripretinib 50 mg + itraconazole 200 mg QD vs ripretinib alone)?
The value was “up to 99%”.

And the “Time postdose that mean plasma concentration remained above the LLOQ” value (ripretinib 50 mg alone (itraconazole study))?
The value was 96 h.

And the “CL/F, arithmetic mean (SD)” value [1]?
Its value is 7 (3) L/h.

What about the “CL/F, geometric mean (CV%)” value [1] of the same compound?
Its value is 6 (48) L/h.

And the “CL/F, arithmetic mean (SD)” value [2]?
Its value is 13 (5) L/h.

And the “CL/F, geometric mean (CV%)” value [2]?
Its value is 12 (42) L/h.

What about the “Geometric LS mean ratio of AUC0–t” value [3] of the same compound?
Its value is 198%.

What about the “Geometric LS mean ratio of AUC0–∞ (90% CI)” value [3] of the same compound?
Its value is 199 (174–227) %.

And the “Geometric LS mean ratio of Cmax (90% CI)” value [3]?
Its value is 136% and 136 (116–159) %.

And the “Geometric LS mean ratio of AUC0–∞ (90% CI)” value (ripretinib 50 mg with itraconazole 200 mg QD relative to ripretinib alone, listed as ripretinib)?
The value was 199%.

What about the “Time postdose that mean plasma concentration remained above the LLOQ” value (ripretinib 50 mg with itraconazole) of the same compound?
Its value is “up to 168 hours”.
